The first assay has as its target T1, human nAChRα6-α3 chimera, in addition to β2 and β3^V273S subunits (Homo sapiens, UniProt P32297+Q15825).
T1 construct: expressed in transfected cells
Description: fluorescence-based calcium assay: inhibition of nicotine stimulated nAChRα6 activity (FLIPR). Conditions: HEK cell line stably expressing the receptor; 10 min pre-incubation, nicotine EC80; 10-point curve, duplicate wells; read-out: IC50. The procedure:
The ability of the test compounds to inhibit nicotine stimulated nAChRα6 activity was determined in a fluorescence-based calcium assay. Compound activity was determined using a HEK cell line stably expressing a human nAChRα6-α3 chimera, in addition to β2 and β3^V273S subunits (as in Capelli et al, Br J Pharmacol 163(2): 313-29 2011). In this cell line, nicotine stimulated an increase in intracellular calcium concentration, measured as an increase in fluorescence when cells were incubated with a calcium sensitive dye. Test compounds were pre-incubated with cells prior to nicotine stimulation to detect any reduction in the magnitude of the nicotine response.
The day prior to the assay, compounds were serially diluted in DMSO (200× final assay concentration (FAC)), in 384-well plates which were then stored in the dark at room temperature (RT) until use. Cells were seeded at 20 k/well in black, poly-D-lysine coated, clear bottom 384-well plates and incubated for 4 hours at 37° C., followed by overnight incubation at 30° C. The following day, the DMSO compound plate was diluted 1:20 (10×FAC) in assay buffer (HEPES buffered saline solution with 10 mM HEPES, 0.1% bovine serum albumin, 1 mM probenecid). A nicotine solution was prepared in assay buffer (7×FAC) and dispensed into a 384-well plate. The growth media was removed from the cell plate, replaced with 53 μl calcium dye/well (Calcium 5; Molecular Devices) and the plate incubated at 30° C. for 45 minutes. Test compounds were then added to the cells (7 μl of 10×FAC) and incubated for 10 minutes, after which nicotine EC80 (10 μl of 7×FAC) was added and changes in fluorescence measured using a FLIPR plate reader (Molecular Devices).
Compound activity was examined using a 10-point, half-log concentration-response range and each concentration was tested in duplicate wells.
T1 sequence (Q05901 25-458 V273S): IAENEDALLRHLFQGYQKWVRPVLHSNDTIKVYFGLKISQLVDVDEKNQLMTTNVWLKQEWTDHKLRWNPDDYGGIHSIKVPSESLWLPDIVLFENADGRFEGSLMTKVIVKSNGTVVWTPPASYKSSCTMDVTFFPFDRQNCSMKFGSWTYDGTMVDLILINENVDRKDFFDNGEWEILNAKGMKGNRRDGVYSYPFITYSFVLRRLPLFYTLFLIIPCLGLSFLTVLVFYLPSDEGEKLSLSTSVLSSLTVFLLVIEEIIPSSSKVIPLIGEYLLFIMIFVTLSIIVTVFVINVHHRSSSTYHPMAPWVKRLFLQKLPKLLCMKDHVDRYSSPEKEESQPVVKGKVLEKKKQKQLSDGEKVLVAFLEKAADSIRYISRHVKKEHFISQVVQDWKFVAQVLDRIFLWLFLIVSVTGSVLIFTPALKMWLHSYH
T1 sequence (P17787 26-502, stated change not applied, further chain): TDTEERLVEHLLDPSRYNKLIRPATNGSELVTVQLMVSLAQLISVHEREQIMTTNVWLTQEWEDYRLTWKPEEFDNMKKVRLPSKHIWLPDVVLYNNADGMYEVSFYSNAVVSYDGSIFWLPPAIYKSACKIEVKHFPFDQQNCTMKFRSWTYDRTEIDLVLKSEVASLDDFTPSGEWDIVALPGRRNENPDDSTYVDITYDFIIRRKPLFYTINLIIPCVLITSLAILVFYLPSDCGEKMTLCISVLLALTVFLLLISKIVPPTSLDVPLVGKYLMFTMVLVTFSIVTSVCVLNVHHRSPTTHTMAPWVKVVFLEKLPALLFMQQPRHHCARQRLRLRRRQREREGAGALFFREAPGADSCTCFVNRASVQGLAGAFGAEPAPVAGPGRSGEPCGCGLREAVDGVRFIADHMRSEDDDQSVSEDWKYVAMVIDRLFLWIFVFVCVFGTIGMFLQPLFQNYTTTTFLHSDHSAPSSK
T1 sequence (Q15825+P32297 fused with the stated changes): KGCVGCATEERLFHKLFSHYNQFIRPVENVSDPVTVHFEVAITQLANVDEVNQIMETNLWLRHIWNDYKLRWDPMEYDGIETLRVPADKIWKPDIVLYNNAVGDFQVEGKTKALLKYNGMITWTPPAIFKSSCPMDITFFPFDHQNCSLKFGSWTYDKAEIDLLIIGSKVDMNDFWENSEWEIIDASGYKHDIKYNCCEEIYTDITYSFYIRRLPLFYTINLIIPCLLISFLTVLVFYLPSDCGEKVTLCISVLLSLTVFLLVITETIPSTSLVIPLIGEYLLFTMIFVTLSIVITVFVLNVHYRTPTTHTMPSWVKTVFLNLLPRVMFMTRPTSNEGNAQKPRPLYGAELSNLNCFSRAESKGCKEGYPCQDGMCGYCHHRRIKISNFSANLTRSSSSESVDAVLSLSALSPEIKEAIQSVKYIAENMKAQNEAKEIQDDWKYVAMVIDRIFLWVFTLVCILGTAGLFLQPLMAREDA
With `Cc1nc(NC[C@@H]2CCCN2C)ncc1-c1ccc(OC(F)(F)F)cc1F` [Example 93b, (S)-5-(2-fluoro-4-(trifluoromethoxy)phenyl)-4-methyl-N-((1-methylpyrrolidin-2-yl)methyl)pyrimidin-2-amine], the half-inhibitory concentration (IC50) was 0.011 µM.
On the same count and under the same terms, in the case of `Cc1nc(NCC2CCCCN2)ncc1-c1ccc(C(F)(F)F)cc1F` (centres unmarked) [Example 104, 5-(2-fluoro-4-(trifluoromethyl)phenyl)-4-methyl-N-(2-piperidinylmethyl) pyrimidin-2-amine] it was 0.027 µM.
As to `Cc1nc(NCC2CCCN2C)nnc1-c1ccc(F)cc1F` (centres unmarked) [Example 15, 6-(2,4-difluorophenyl)-5-methyl-N-((1-methylpyrrolidin-2-yl)methyl)-1,2,4-triazin-3-amine], the concentration for half-maximal inhibition (IC50) came to 1.94 µM.
Regarding `COc1ccc(-c2cnc(NC3CCC(N(C)C)C3)nc2C)c(F)c1` (single isomer, unassigned) [Example 44b, N^1-(5-(2-fluoro-4-methoxyphenyl)-4-methyl-pyrimidin-2-yl)-N^3,N^3-dimethylcyclopentane-1,3-diamine], the half-maximal inhibitory concentration (IC50) came to 0.088 µM.
Regarding `CCN1CCCC1CNc1ncc(-c2ccc(F)cc2F)c(C)n1` (centres unmarked) [Example 85, 5-(2,4-difluorophenyl)-N-((1-ethylpyrrolidin-2-yl)methyl)-4-methyl-pyrimidin-2-amine], the IC50 is 0.051 µM.
Turning to `COc1ccc(-c2cnc(NC3CCCN(C(C)C)C3)nc2C)c(F)c1` (centres unmarked) [Example 48, 5-(2-fluoro-4-methoxyphenyl)-N-(1-isopropylpiperidin-3-yl)-4-methyl-pyrimidin-2-amine], the IC50 was 0.083 µM.
`Cc1nc(NC[C@H]2CC(F)(F)CN2C)ncc1-c1ccc(F)cc1F` [Example 80, (R)—N-((4,4-difluoro-1-methylpyrrolidin-2-yl)methyl)-5-(2,4-difluorophenyl)-4-methyl-pyrimidin-2-amine]: the IC50 came out at 1.47 µM.
As to `Cc1nc(NC2CCN3CCCC23)ncc1-c1ccc(F)cc1F` (single isomer, unassigned) [Example 86a, N-(5-(2,4-difluorophenyl)-4-methyl-pyrimidin-2-yl)hexahydro-1H-pyrrolizin-1-amine], the IC50 came to 0.122 µM.
Same read-out and setting: in the case of `Cc1nc(NC2CCCC(N(C)C)C2)nnc1-c1ccc(F)cc1F` (single isomer, unassigned) [Example 39a, N^1-(6-(2,4-difluorophenyl)-5-methyl-1,2,4-triazin-3-yl)-N^3,N^3-dimethylcyclohexane-1,3-diamine] it was 0.904 µM.
Same read-out and setting: the same measure for `Cc1nc(NCCC2CCCN2C)nnc1-c1ccc(F)cc1F` (centres unmarked) [Example 21, 6-(2,4-difluorophenyl)-5-methyl-N-(2-(1-methylpyrrolidin-2-yl)ethyl)-1,2,4-triazin-3-amine]: 0.599 µM; for `COc1ccc(-c2nnc(NC3CCCN(C)C3)nc2C)c(F)c1` (single isomer, unassigned) [Example 69b, 6-(2-fluoro-4-methoxyphenyl)-5-methyl-N-(1-methylpiperidin-3-yl)-1,2,4-triazin-3-amine]: 0.309 µM; for `Cc1nc(NCC2CCCN2C)nnc1-c1ccc(F)cc1F` (single isomer, unassigned) [Example 74b, 6-(2,4-difluorophenyl)-5-methyl-N-((1-methylpyrrolidin-2-yl)methyl)-1,2,4-triazin-3-amine]: 1.47 µM.
As to `Cc1nc(NC(C)[C@H]2CCCN2C)ncc1-c1ccc(C(F)(F)F)cc1F` (single isomer, unassigned) [Example 131b, 5-(2-fluoro-4-(trifluoromethyl)phenyl)-4-methyl-N-((1*S)-1-((2R)-1-methylpyrrolidin-2-yl)ethyl)pyrimidin-2-amine], the IC50 stood at 0.291 µM.
As for `COc1ccc(-c2cnc(NCC3CCCCN3C)nc2C)c(F)c1` (centres unmarked) [Example 17, 5-(2-fluoro-4-methoxyphenyl)-4-methyl-N-((1-methylpiperidin-2-yl)methyl) pyrimidin-2-amine], the IC50 came to 0.02 µM.
Consider `Cc1nc(NC2CCCC(N(C)C)C2)ncc1-c1ccc(F)cc1F` (single isomer, unassigned) [Example 55b, N^1-(5-(2,4-difluorophenyl)-4-methyl-pyrimidin-2-yl)-N^3,N^3-dimethylcyclohexane-1,3-diamine], for which the IC50 was determined as 0.081 µM.
For the compound `Cc1nc(NC[C@]2(C)CCCN2)ncc1-c1ccc(C(F)(F)F)cc1F` [Example 134, (S)-5-(2-fluoro-4-(trifluoromethyl)phenyl)-4-methyl-N-((2-methyl-pyrrolidin-2-yl)methyl)pyrimidin-2-amine], the IC50 is 0.101 µM.
In the case of `Cc1nc(NC(C)[C@H]2CCCN2)ncc1-c1ccc(C(F)(F)F)cc1F` (single isomer, unassigned) [Example 129a, 5-(2-fluoro-4-(trifluoromethyl)phenyl)-4-methyl-N-((1*R)-1-((2R)-pyrrolidin-2-yl)ethyl)pyrimidin-2-amine], the half-inhibitory concentration (IC50) turned out to be 0.065 µM.
On the same count and under the same terms, in the case of `Cc1nc(NC2CCN(C(C)C)CC2)ncc1-c1ccc(F)cc1F` [Example 67, 5-(2,4-difluorophenyl)-N-(1-isopropylpiperidin-4-yl)-4-methyl-pyrimidin-2-amine] it was 0.066 µM; in that of `COc1ccc(-c2cnc(NC3CCN(C)CC3)nc2C)c(F)c1` [Example 40, 5-(2-fluoro-4-methoxyphenyl)-4-methyl-N-(1-methylpiperidin-4-yl) pyrimidin-2-amine], 0.068 µM; in that of `Cc1nc(NCC2CCCCN2C)nnc1-c1ccc(F)cc1F` (centres unmarked) [Example 20, 6-(2,4-difluorophenyl)-5-methyl-N-((1-methylpiperidin-2-yl)methyl)-1,2,4-triazin-3-amine], 0.49 µM.
On to `Cc1nc(NCC2COCCN2C)ncc1-c1ccc(F)cc1F` (single isomer, unassigned) [Example 79a, 5-(2,4-difluorophenyl)-4-methyl-N-((4-methylmorpholin-3-yl)methyl) pyrimidin-2-amine], for which the IC50 was determined as 0.42 µM.
With `CC(C)N1CCCC(Nc2ncc(-c3ccc(F)cc3)cn2)C1` (centres unmarked) [Example 6, 5-(4-fluorophenyl)-N-(1-isopropylpiperidin-3-yl)pyrimidin-2-amine], the IC50 was 0.123 µM.
The same measure, in the same setting: the same measure for `Cc1nc(NC(C)[C@@H]2CCCN2C)ncc1-c1ccc(C(F)(F)F)cc1F` (single isomer, unassigned) [Example 132a, 5-(2-fluoro-4-(trifluoromethyl)phenyl)-4-methyl-N-((1*R)-1-((2S)-1-methylpyrrolidin-2-yl)ethyl)pyrimidin-2-amine]: 0.092 µM.
With `COc1ccc(F)c(-c2cnc(NCC3CCCN(C)C3)nc2C)c1` (centres unmarked) [Example 34, 5-(2-fluoro-5-methoxyphenyl)-4-methyl-N-((1-methylpiperidin-3-yl)methyl) pyrimidin-2-amine], the IC50 was 0.13 µM.
The same measure, in the same setting: in the case of `Cc1nc(NC2CCN3CCCC23)ncc1-c1ccc(OC(F)(F)F)cc1F` (single isomer, unassigned) [Example 97c, N-(5-(2-fluoro-4-(trifluoromethoxy)phenyl)-4-methyl-pyrimidin-2-yl)hexahydro-1H-pyrrolizin-1-amine] it was 0.18 µM.
Regarding `Cc1nc(NC[C@H]2CCCN2C)ncc1-c1ccc(C(F)(F)F)cc1F` [Example 91a, (R)-5-(2-fluoro-4-(trifluoromethyl)phenyl)-4-methyl-N-((1-methylpyrrolidin-2-yl)methyl)pyrimidin-2-amine], the half-maximal inhibitory concentration (IC50) stood at 0.008 µM.
Still for that read-out and setting: the same measure for `Cc1nc(NC(C)[C@@H]2CCCN2)ncc1-c1ccc(C(F)(F)F)cc1F` (single isomer, unassigned) [Example 130a, 5-(2-fluoro-4-(trifluoromethyl)phenyl)-4-methyl-N-((1*R)-1-((2S)-pyrrolidin-2-yl)ethyl)pyrimidin-2-amine]: 0.118 µM; for `Cc1nc(NC[C@H]2CN(C)CCO2)ncc1-c1ccc(C(F)(F)F)cc1F` (single isomer, unassigned) [Example 108b]: 0.077 µM.
Turning to `CN1CCCC(CNc2ncc(-c3ccc(F)cc3)cn2)C1` (centres unmarked) [Example 4, 5-(4-fluorophenyl)-N-((1-methylpiperidin-3-yl)methyl)pyrimidin-2-amine], the IC50 is 0.211 µM.
As for `Cc1nc(NC[C@@H]2CCCN2C)ncc1-c1ccc(F)cc1C(F)(F)F` [Example 92b, (S)-5-(4-fluoro-2-(trifluoromethyl)phenyl)-4-methyl-N-((1-methylpyrrolidin-2-yl)methyl)pyrimidin-2-amine], the concentration for half-maximal inhibition (IC50) came to 0.073 µM.

Staying with this assay, now noted: IC50 (μM), HEK cell line stably expressing the receptor; 10 min pre-incubation, nicotine EC80; 10-point curve, duplicate wells.
With `CCN1CCCCC1CNc1ncc(-c2ccc(F)cc2F)c(C)n1` (centres unmarked) [Example 10, 5-(2,4-difluorophenyl)-N-((1-ethylpiperidin-2-yl)methyl)-4-methyl-pyrimidin-2-amine], the concentration for half-maximal inhibition (IC50) was 0.201 µM.
Turning to `COc1ccc(-c2cnc(NCC3CCCCN3C)nc2C)c(Cl)c1` (centres unmarked) [Example 35, 5-(2-chloro-4-methoxyphenyl)-4-methyl-N-((1-methylpiperidin-2-yl)methyl) pyrimidin-2-amine], the IC50 is 0.029 µM.

The values are drawn from patent publication US20240059677A1, “SUBSTITUTED PYRIMIDINE DERIVATIVES AS NICOTINIC ACETYLCHOLINESTERASE RECEPTOR ALPHA 6 MODULATOR” (priority 2020, published 2024).
